# From patent US11186606B2, “Compositions and methods of modulating the immune response by activating alpha protein kinase 1” (Shanghai Yao Yuan Biotechnology Co., Ltd., priority 2017, dated 2021)
# Assays:
# ALPK1 [1] = test: IL8 secretion in HEK293 cells (IL8 ELISA) as indicator of ALPK1 activation; settings: added to the FBS-containing medium, HEK293 cells, IL8 secretion
# Method: (§2) We pre-mixed H1b-ADP with phosphatase inhibitor sodium orthovanadate (Na3VO4) before incubation with FBS.
# (§3) In these experiments, serial dilutions of the compounds were added to the tissue culture media of HEK293 cells with (FIG. 27B, FIG. 28B, FIG. 29B) or without (FIG. 26, FIG. 27A, FIG. 28A, FIG. 29A) 10% FBS, as indicated in the figures. After 4 hours, the cell supernatant was collected and analyzed for IL8 concentration using IL8 ELISA (BD) as an indicator of ALPK1 activation.
# [2] = system: phosphatase activity in the serum; test: Incubation of H1b-ADP with FBS, product analysed by LC-MS; type: in vitro ADME, bovine
# Source text: (§1) FBS contains 110-352 U/ml alkaline phosphatase.
# [3] = system: mouse liver and lung tissue; test: Chemokine and cytokine expression in liver and lung tissue after subcutaneous injection (qPCR); type: in vivo; settings: C57 mice, three hours
# Method: In additional experiments, Compound 1 was injected subcutaneously into 7 week old C57 mice at concentrations of 2, 10, 50, and 200 nmol. Tissue was harvested three hours later and RNA extracted. Quantitative PCR (qPCR) was performed to determine the tissue expression levels Cxcl1, Cxcl11, IL1b, and IL6 in mouse liver (FIG. 32A) and lung (FIG. 32B) tissue. Additional chemokines and cytokines were assayed in the lung tissue.
# ALPK1 [4] = target: T1, ALPK1 (Homo sapiens, UniProt Q96QP1); test: IL8 secretion in HEK293 cells (IL8 ELISA) as indicator of ALPK1 activation; settings: without FBS, 4 hours
# T1 sequence (Q96QP1 whole entry): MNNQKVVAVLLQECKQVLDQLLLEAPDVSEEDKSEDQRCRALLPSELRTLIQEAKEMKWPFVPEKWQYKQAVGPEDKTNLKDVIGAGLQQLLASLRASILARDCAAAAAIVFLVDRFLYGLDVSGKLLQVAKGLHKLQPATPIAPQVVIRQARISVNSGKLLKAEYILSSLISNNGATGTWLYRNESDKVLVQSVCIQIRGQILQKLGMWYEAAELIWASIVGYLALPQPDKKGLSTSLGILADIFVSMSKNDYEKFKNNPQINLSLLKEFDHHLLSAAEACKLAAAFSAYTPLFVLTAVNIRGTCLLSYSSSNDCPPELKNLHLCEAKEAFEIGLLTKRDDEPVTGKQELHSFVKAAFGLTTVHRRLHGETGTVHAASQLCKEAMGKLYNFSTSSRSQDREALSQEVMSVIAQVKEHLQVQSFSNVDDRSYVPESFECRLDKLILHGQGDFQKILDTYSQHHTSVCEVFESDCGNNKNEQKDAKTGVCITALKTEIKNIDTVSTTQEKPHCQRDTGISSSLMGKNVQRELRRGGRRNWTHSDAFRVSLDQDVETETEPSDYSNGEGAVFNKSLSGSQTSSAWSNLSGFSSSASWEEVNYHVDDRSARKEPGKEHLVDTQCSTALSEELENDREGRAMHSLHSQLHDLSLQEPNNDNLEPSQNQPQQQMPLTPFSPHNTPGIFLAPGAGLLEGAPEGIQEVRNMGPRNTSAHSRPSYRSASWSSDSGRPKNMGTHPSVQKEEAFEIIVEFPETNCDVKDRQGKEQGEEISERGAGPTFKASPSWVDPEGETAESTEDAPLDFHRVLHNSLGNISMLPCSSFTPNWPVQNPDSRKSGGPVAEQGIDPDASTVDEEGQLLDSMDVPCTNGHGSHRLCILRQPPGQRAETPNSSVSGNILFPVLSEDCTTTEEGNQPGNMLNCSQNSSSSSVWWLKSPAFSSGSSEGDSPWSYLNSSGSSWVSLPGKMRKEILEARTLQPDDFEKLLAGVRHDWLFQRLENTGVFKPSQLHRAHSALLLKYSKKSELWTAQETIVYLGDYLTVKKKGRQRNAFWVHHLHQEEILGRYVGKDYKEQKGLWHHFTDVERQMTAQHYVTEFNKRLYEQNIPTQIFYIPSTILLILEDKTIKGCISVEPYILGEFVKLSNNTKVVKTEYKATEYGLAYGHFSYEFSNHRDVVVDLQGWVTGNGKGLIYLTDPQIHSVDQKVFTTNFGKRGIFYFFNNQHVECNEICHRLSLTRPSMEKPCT
# Method: as §2, §3
# CT26 cells = test: CT26 tumor xenograft model, tumor volume; type: in vivo, BALB/c mice
# Method: We used a CT26 tumor xenograft model to test the anti-cancer activity of H1b-ADP. Tumor cells (2×10^5 per 100 uL CT26 cells) were inoculated subcutaneously into the right flank of BALB/c mice. At day 6, mice whose tumors had reached 3-5 mm in diameter were randomized and grouped into three groups (n=8 each group), control, HMP-1bP (580 ug), and H1b-ADP (1.2 ug). Injections were performed using a total volume of 20 uL at days 6, 8, 10, 12, and 14 post inoculation. Tumor volumes were calculated every 2 days from caliper measurements of tumor dimension using the formula (L×W^2)/2, where L is the longer measurement.
# To test whether H1b-ADP could augment an anti-tumor response by a checkpoint inhibitor, we tested the effects of co-administration with an anti-PD1 antibody. Tumor cells (2×10^5 per 100 μL CT26 cells) were inoculated subcutaneously into the left and right flanks of BALB/c mice. At day 7, mice whose tumors had reached 5 mm in diameter were randomized and grouped (n=8 each group) into the following four groups: anti-PD1 antibody; rat IgG; H1b-ADP+rat IgG; H1b-ADP+anti-PD1 antibody. We utilized RMP1-14 as the anti-PD1 antibody (10 mg/kg) and a rat IgG 2a (2A3) as the control IgG. Each of the anti-PD-1 antibody and the control IgG was administered intraperitoneally in a 200 μL volume on days 6, 10, 12, and 17 post-inoculation. H1b-ADP (6.2 μg) was intratumorally injected in a 20 μL volume at day 6, 8, 10, 12, and 15. Tumor volumes were calculated every 2 days from caliper measurements of tumor dimensions using the formula (L×W^2)/2, where L is the longer measurement. The results are shown in FIG. 13A for injected tumors and FIG. 13B for distant tumors. […]
# The experiment was carried out as combo experiments of anti-PD1 except for the following variations. At day 6, mice whose tumors had reached 5 mm in diameter were randomized and grouped into the following four groups: c-di-AM(PS)2; PBS; H1b-ADP; H1b-ADP+c-di-AM(PS)2. We utilized c-di-AM(PS)2 as the STING agonist. Each of the c-di-AM(PS)2 (1 μg) and H1b-ADP (6.2 μg) was administered intratumorally in a 20 μL volume on days 6, 7, and 9 post-inoculation.
# The experiment was carried out as combo experiments of anti-PD-1 except for the following variations. At day 6, mice whose tumors had reached 5 mm in diameter were randomized and grouped into the following four groups: anti-CD4 antibody (GK1.5 clone, BE0003-1, BioXcell); rat IgG; H1b-ADP+rat IgG; H1b-ADP+anti-CD4 antibody. Each of the anti-CD4 antibody (200 μg) and the control IgG (200 μg) was administered intraperitoneally in a 200 μL volume on days 3, 4, 8 post-inoculation. H1b-ADP (6.2 μg) was administered intratumorally in a 20 μL volume on days 6, 8, 10, 12, 14 post-inoculation.
# The experiment was carried out as combo experiments of anti-PD-1 except for the following variations. At day 6, mice whose tumors had reached 5 mm in diameter were randomized and grouped into the following four groups: Resquimod; PBS; H1b-ADP; H1b-ADP+Resquimod. Resquimod (10 μg) and H1b-ADP (6.2 μg) were administered intratumorally in a 20 μL volume on days 6, 8, 11 post-inoculation.
# We used a CT26 tumor xenograft model to test the anti-cancer activity of H1b-ADP derivative Compounds 1 and 2. Tumor cells (2×10^5 per 100 uL CT26 cells) were inoculated subcutaneously into the right flank of BALB/c mice. At day 7, mice whose tumors had reached 3-5 mm in diameter were randomized and grouped into three groups (n=9 each group), control, Compound 1 (50 nmol), and Compound 2 (50 nmol). Injections were performed using a total volume of 20 uL at days 7, 9, and 11 post inoculation. Tumor volumes were calculated every 2 days from caliper measurements of tumor dimension using the formula (L×W^2)/2, where L is the longer measurement.
# ALPK1 [5] = target: T1, ALPK1; test: In vitro kinase assay of ALPK1-dependent TIFA phosphorylation; type: biochemical; settings: for phosphorylation of the ALPK1 substrate TIFA: FIG. 7, chemically-synthesized compounds
# Method: We performed an in vitro kinase assay with H1b-ADP and H1b-ADP-6L along with ALPK1 protein (2 nM), and TIFA protein (1.6 uM) in kinase buffer containing 50 uM ATP. TIFA phosphorylation was analyzed by denaturing gel electrophoresis followed by western blotting using an anti-phosphothreonine antibody. H1b-ADP or H1b-ADP-6L was added at 2 nM, 0.4 nM, 80 pM, 16 pM, and 3 pM.
# To test this, we performed an in vitro kinase reaction for ALPK1-dependent TIFA phosphorylation in the presence of either HBP or HIdA purified from E. coli containing inactivated HIdE, or in the presence of HBP and HIdA purified from the same HIdE wild-type E. coli used in the previous experiments. Phosphorylated TIFA (three concentrations, 1%, 0.2% and […]) was detected as described above by denaturing gel electrophoresis followed by Western analysis.
# ALPK1 [6] = target: T1, ALPK1; test: Cell-free kinase assay of ALPK1 autophosphorylation (Western, anti-phospho-threonine); type: biochemical; settings: ALPK1 2 nM, ATP; H1b-ADP 10, 1, 0.2 nM; HBP and HMP-1bP 1, 10, 100 nM
# Method: ALPK1 activation results in its autophosphorylation. Accordingly, we next asked whether the binding of H1b-ADP to ALPK1 was sufficient to induce ALPK1 autophosphorylation. Phosphorylation assays were performed according to standard protocols. Briefly, ALPK1 was incubated (2 nM, 25° C., 1 h) in assay buffer (20 al, 25 mM HEPES pH 7.5, 50 mM KCl, 0.1 mM EDTA, 0.1 mM EGTA, 2 mM DTT, 1.5 mM CaCl2, 10 mM MgCl2) with ATP and chemically synthesized HBP, HMP-1bP, or H1b-ADP followed by denaturing gel electrophoresis and Western analysis with an anti-phospho-threonine antibody (CST) to detect autophosphorylation of ALPK1. […] The range of concentrations of HBP and HMP-1bP used in this assay (1 nM, 10 nM, 100 nM) was 10-fold higher than that used for H1b-ADP.
# ALPK1 [7] = target: T1, ALPK1; test: Thermal shift assay (SYPRO Orange) for binding to ALPK1; settings: ALPK1 7 uM; 1 uM, 5 uM, 25 uM, or 125 uM
# Source text: The thermal shift assay is widely used to determine the binding of a molecule to a protein of interest. The assay is based on the increase in thermal energy required for denaturation of a protein where another molecule is bound to the protein. SYPRO Orange is a fluorescent compound used in the detection of thermal shift. SYPRO Orange binds to hydrophobic surfaces of the protein, and water strongly quenches its fluorescence. When the protein unfolds, the exposed hydrophobic surfaces bind the dye, resulting in an increase in fluorescence. When another molecule is bound to the protein, an increase in the temperature required for unfolding of the protein is observed.
# This assay system was used to determine whether or not chemically synthesized HBP, HMP-1bP, and H1b-ADP directly bind to ALPK1. […] Only H1b-ADP induced a shift of more than 1 degree, at each of the three highest concentrations tested, 5 uM, 25 uM, and 125 uM.
# ALPK1 [8] = target: T1, ALPK1; test: IL-8 and TNFα mRNA expression in HEK293 cells with control or ALPK1-directed siRNA; type: cell-based; parameters: ALPK1-directed small interfering RNA (siRNA) to silence ALPK1 expression in HEK293 cells; endogenous in cells; host or cells: HEK293; settings: for IL-8 mRNA expression / TNFα mRNA expression: 4 hours, control vs ALPK1-directed siRNA; for concentration required to induce IL-8 and TNFα mRNA expression: FIG. 5
# Method: To test whether HBP, HMP-1bP, and H1b-ADP were able to induce cytokine expression in an ALPK1 dependent manner, we used an ALPK1-directed small interfering RNA (siRNA) to silence ALPK1 expression in HEK293 cells. Cells were plated (1×10^4 cells/well) into 96-well plates and transfected with either control siRNA or ALPK1-directed siRNA according to the manufacturer's protocols (Lipofectamine™ RNAiMax™, Invitrogen 13778075). Following 2 days of culture, either (1) HBP (500 uM, 100 uM, 20 uM, FIG. 2A-2B) (2) HMP-1bP (500 uM, 100 uM, FIG. 3A-3B), (3) H1b-ADP (100 nM, 20 nM, 4 nM, 0.8 nM, FIG. 4A-4B) was added to culture medium and cells were harvested 4 hours later.
# [9] = system: bovine alkaline phosphatase; test: Incubation of H1b-ADP with bovine alkaline phosphatase; type: biochemical
# Source text: as §1
Compound,restoration of H1b-ADP's activity in the cell based assay (ALPK1 [1]),autophosphorylation of ALPK1 (ALPK1 [6]),thermal shift / direct binding to ALPK1 (ALPK1 [7]),IL-8 mRNA expression (ALPK1 [8]),TNFα mRNA expression (ALPK1 [8]),concentration required to induce IL-8 and TNFα mRNA expression (ALPK1 [8]) [µM],phosphorylation of the ALPK1 substrate TIFA (ALPK1 [5]),further results
Nc1ncnc2c1ncn2[C@@H]1O[C@H](COP(=O)(O)O)[C@@H](O)[C@H]1O [AMP],could restore H1b-ADP's activity,,,,,,,phosphatase activity in serum ([2]; pre-treatment of H1b-ADP before serum incubation): inhibited phosphatase activity and the inhibition was AMP dose-dependent
"CC(=O)OC[C@@H](OC(C)=O)[C@H]1O[C@@H](OP(=O)(O)OP(=O)(O)OC[C@H]2O[C@@H](n3cnc4c(N)ncnc43)[C@H](O)[C@@H]2F)[C@@H](OC(C)=O)[C@@H](OC(C)=O)[C@@H]1OC(C)=O [Compound 1, (2S,3S,4S,5R,6R)-2-(((((((2R,3S,4S,5R)-5-(6-amino-9H-purin-9-yl)-3-fluoro-4-hydroxytetrahydrofuran-2-yl)methoxy)(hydroxy)phosphoryl)oxy)(hydroxy)phosphoryl)oxy)-6-((R)-1,2-diacetoxyethyl)tetrahydro-2H-pyran-3,4,5-triyl triacetate]",,,,,,,,"dose activating an inflammatory response in lung tissue [3]: 200 nmol; dose activating an inflammatory response in liver tissue ([3]; 2 nmole = 1.2 μg): ≤ 2 nmol; IL8 secretion in HEK293 cells (ALPK1 [4]): activate IL8 secretion; tumor growth (CT26 cells; Example 18: 50 nmol, injections days 7, 9, 11): reduced tumor growth"
"Nc1ncnc2c1ncn2[C@@H]1O[C@H](COP(=O)(O)OP(=O)(O)O[C@@H]2O[C@H]([C@@H](O)CO)[C@@H](O)[C@H](O)[C@@H]2O)[C@@H](O)[C@H]1O [Compound H1b-ADP-6L, L-glycero-D-manno-heptose-1β-ADP]",,,,,,,,"TIFA phosphorylation (ALPK1-dependent signaling) (ALPK1 [5]; ALPK1 2 nM, TIFA 1.6 uM, 50 uM ATP, 2 nM to 3 pM): activated ALPK1-dependent signaling in a manner similar to H1b-ADP"
"O=P(O)(O)OC[C@@H](O)[C@H]1O[C@@H](OP(=O)(O)O)[C@@H](O)[C@@H](O)[C@@H]1O [HBP, D-glycero-β-D-manno-heptose 1,7-bisphosphate]",,not,Neither HBP nor HMP-1bP were able to induce a thermal shift,increased in an ALPK1-dependent manner,increased in an ALPK1-dependent manner,100,only in the presence of H1b-ADP,anti-tumor activity in a murine tumor model (CT26 cells; summary statement): not
"O=P(O)(O)O[C@@H]1O[C@H]([C@H](O)CO)[C@@H](O)[C@H](O)[C@@H]1O [HMP-1bP, D-glycero-β-D-manno-heptose-1-phosphate]",,not,Neither HBP nor HMP-1bP were able to induce a thermal shift,increased in an ALPK1-dependent manner,increased in an ALPK1-dependent manner,100,only in the presence of H1b-ADP,"tumor growth (CT26 cells; intratumoral, days 6, 8, 10, 12, 14, HMP-1bP 580 ug, H1b-ADP 1.2 ug): not"
"[Na+].[Na+].[Na+].[O]=[V]([O-])([O-])[O-] [Na3VO4, sodium orthovanadate]",could restore H1b-ADP's activity,,,,,,,"phosphatase activity (H1b-ADP hydrolysis) [9]: blocked by increasing amount of Na3VO4; H1b-ADP hydrolysis ([2]; 1 mM, pre-mixed with H1b-ADP before incubation with FBS): effectively inhibited H1b-ADP hydrolysis"
